From ChEMBL document CHEMBL1130849, “Novel 1,3-disubstituted-5,10-dihydro-5,10-dioxo-1H-benzo[g] isochromene-3 carboxamides as potent antitumor agents” (Bioorg Med Chem Lett, 1998)

Tests used:
[1] = tested on: HT-29; experiment: Compound was tested for its antitumor activity against HT-29 colon carcinoma cell line; No activity.; format: functional, cell-based, Homo sapiens
[2] = tested on: SK-OV-3; experiment: Compound was tested for its antitumor activity against SKOV3 human ovarian cancer cell line; format: functional, cell-based
[3] = Selectivity ratio was determined for P-170 glycoprotein mediated multidrug resistant variant SKVLB to the ovarian cancer cell line SK-OV3.; format: functional, Cancer cell lines
[4] = tested on: HT-29; experiment: Compound was tested for its antitumor activity against HT-29 colon carcinoma cell line; format: functional, cell-based; settings: Homo sapiens

SMILES	IC50 [1]	IC50 [2]	IC50 [4]	Ratio [3]
COC1OC(C(=O)NCCC[S+](C)C)=CC2=C1C(=O)c1ccccc1C2=O.[Cl-] (centres undefined)	Not Active	1.3 µM		13
CCCC1OC(C(=O)NCCCN(C)C)=CC2=C1C(=O)c1ccccc1C2=O (centres undefined)		0.28 µM	0.39 µM	2
O=C(NCCCBr)C1=CC2=C(CO1)C(=O)c1ccccc1C2=O		1.06 µM	2.76 µM	2.6
COC1OC(C(=O)NCC[N+](C)(C)C)=CC2=C1C(=O)c1ccccc1C2=O (centres undefined)		19.5 µM	32.3 µM	1.5
CN(C)CCCNC(=O)C1=CC2=C(CO1)C(=O)c1ccccc1C2=O	Not Active	0.22 µM		5.4
CN(C)CCCNC(=O)C1=CC2=C(C(=O)c3ccccc3C2=O)C(O)O1 (centres undefined)		3.7 µM	6.3 µM	6.3
COC1OC(C(=O)NCCCCN(C)C)=CC2=C1C(=O)c1ccccc1C2=O (centres undefined)	Not Active	0.14 µM		4.1

The next compounds have a lower IC50 [2] than those just listed; values first:

IC50 [1]	IC50 [2]	IC50 [4]	SMILES	Ratio [3]
	0.02 µM	0.34 µM	COc1cccc2c1C(=O)c1c(O)c3c(c(O)c1C2=O)C[C@@](O)(C(=O)CO)C[C@@H]3O[C@H]1C[C@H](N)[C@H](O)[C@H](C)O1 [DOXORUBICIN]	300
	0.11 µM	1.18 µM	COC1OC(C(=O)N(C)CCN(C)C)=CC2=C1C(=O)c1ccccc1C2=O (centres undefined)	5.4
	0.06 µM	1.54 µM	COC1OC(C(=O)NCCCO)=CC2=C1C(=O)c1ccccc1C2=O (centres undefined)	6
	0.014 µM	0.15 µM	COC1OC(C(=O)NCCCNC(=O)C2=CC3=C(C(=O)c4ccccc4C3=O)C(OC)O2)=CC2=C1C(=O)c1ccccc1C2=O (centres undefined)	111
	0.05 µM	0.17 µM	COC1OC(C(=O)NCCN2CCCC2)=CC2=C1C(=O)c1ccccc1C2=O (centres undefined)	10
	0.007 µM	0.07 µM	COC1OC(C(=O)NCCCN(C)C)=CC2=C1C(=O)c1ccccc1C2=O (centres undefined)	9.3
